Assay results as given in US9637483B2, “Heterocyclic compound” (TAKEDA PHARMACEUTICAL COMPANY LIMITED, priority 2013, dated 2017).

Tests used:
Format in all cases: biochemical
JAK1 = target: T1, JAK1 (Homo sapiens, UniProt P23458); test: JAK1 enzyme inhibition test (LANCE method); conditions: 1 μM test compound; read-out: JAK1 enzyme inhibitory activity (%, 1 μM)
T1 construct: purchased Invitrogen
Experimental: (§1) JAK1 enzyme inhibitory activity of test compounds was measured by the LANCE method (PerkinElmer). First, a test compound diluted with assay buffer (50 mM HEPES (pH 7.5), 10 mM MgCl2, 1 mM EGTA, 2 mM DTT, 0.01% Tween20, 0.01% BSA) was added to a 384-well plate by 2 μL each. Then, a JAK1 (Invitrogen) solution and a fluorescence-labeled peptide substrate (ULight-JAK1, PerkinElmer) solution diluted with assay buffer to 187.5 ng/mL and 300 nM, respectively, were added by 2 μL each. Then, an enzyme reaction was started by adding 2 μL each of ATP solution prepared with assay buffer to 150 μM. After the reaction at room temperature for 1 hr, Detection Buffer (PerkinElmer) prepared to contain 20 mM EDTA, 4 nM europium-labeled anti-phosphotyrosine antibody (PerkinElmer) was added by 6 μL each. After standing at room temperature for 1 hr, fluorescence intensity (excitation wavelength 340 nm, fluorescence wavelength 665 nm, delay time 100 microseconds) was measured by a plate reader, Envision (PerkinElmer). The inhibitory activity of each compound was calculated as a relative activity value to the fluorescence intensity of a well free of enzyme as 100% inhibition.

JAK2 = target: T2, JAK2 (Homo sapiens, UniProt O60674); test: JAK2 enzyme inhibition test (LANCE method); conditions: 1 μM test compound; read-out: JAK2 enzyme inhibitory activity (%, 1 μM)
T2 construct: purchased Invitrogen
Experimental: as §1, with “JAK2 enzyme” for “JAK1 enzyme”, “a JAK2” for “a JAK1”, “to 6” for “to 187.5”, “to 45” for “to 150”

JAK3 = target: T3, JAK3 (Homo sapiens, UniProt P52333); test: JAK3 enzyme inhibition test (LANCE method); conditions: 1 μM test compound; read-out: JAK3 enzyme inhibitory activity (%, 1 μM)
T3 construct: purchased Invitrogen
T3 sequence (P52333 1-1124): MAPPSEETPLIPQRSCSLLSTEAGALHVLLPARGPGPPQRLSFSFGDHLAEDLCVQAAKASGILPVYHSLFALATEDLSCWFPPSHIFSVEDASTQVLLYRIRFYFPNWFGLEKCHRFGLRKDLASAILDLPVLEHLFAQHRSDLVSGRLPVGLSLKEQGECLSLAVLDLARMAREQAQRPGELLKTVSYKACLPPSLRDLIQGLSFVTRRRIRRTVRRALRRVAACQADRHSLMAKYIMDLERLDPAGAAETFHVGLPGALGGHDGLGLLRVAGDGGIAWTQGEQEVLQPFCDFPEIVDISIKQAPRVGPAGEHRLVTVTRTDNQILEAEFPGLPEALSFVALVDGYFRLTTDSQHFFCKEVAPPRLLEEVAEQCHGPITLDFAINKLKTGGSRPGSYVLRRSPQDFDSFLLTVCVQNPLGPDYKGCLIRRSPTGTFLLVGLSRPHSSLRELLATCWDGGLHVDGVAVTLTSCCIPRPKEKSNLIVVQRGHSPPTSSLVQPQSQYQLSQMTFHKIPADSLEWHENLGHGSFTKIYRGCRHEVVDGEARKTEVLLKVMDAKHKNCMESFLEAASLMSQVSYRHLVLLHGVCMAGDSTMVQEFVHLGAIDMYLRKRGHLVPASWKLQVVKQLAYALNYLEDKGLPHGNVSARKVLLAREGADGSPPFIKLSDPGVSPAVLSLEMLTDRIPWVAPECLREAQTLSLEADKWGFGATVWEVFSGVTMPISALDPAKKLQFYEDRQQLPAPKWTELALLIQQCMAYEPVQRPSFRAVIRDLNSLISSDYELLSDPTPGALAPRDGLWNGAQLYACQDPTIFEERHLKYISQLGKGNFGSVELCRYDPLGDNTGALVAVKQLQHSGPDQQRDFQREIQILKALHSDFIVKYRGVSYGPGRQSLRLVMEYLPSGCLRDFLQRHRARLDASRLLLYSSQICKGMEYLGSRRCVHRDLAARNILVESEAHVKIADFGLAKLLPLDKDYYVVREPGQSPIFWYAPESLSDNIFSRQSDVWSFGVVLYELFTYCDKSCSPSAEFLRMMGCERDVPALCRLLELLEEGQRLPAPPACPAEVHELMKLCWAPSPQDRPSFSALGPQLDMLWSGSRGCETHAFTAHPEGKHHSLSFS
Experimental: as §1, with “JAK3 enzyme” for “JAK1 enzyme”, “a JAK3” for “a JAK1”, “to 12” for “to 187.5”, “to 15” for “to 150”

TYK2 = target: T4, TYK2 (Homo sapiens, UniProt P29597); test: TYK2 enzyme inhibition test (LANCE method); conditions: 1 μM test compound; read-out: TYK2 enzyme inhibitory activity (%, 1 μM)
T4 construct: purchased Invitrogen
Experimental: as §1, with “TYK2 enzyme” for “JAK1 enzyme”, “a TYK2” for “a JAK1”, “to 375” for “to 187.5”, “to 30” for “to 150”

T1 sequence (P23458 whole entry): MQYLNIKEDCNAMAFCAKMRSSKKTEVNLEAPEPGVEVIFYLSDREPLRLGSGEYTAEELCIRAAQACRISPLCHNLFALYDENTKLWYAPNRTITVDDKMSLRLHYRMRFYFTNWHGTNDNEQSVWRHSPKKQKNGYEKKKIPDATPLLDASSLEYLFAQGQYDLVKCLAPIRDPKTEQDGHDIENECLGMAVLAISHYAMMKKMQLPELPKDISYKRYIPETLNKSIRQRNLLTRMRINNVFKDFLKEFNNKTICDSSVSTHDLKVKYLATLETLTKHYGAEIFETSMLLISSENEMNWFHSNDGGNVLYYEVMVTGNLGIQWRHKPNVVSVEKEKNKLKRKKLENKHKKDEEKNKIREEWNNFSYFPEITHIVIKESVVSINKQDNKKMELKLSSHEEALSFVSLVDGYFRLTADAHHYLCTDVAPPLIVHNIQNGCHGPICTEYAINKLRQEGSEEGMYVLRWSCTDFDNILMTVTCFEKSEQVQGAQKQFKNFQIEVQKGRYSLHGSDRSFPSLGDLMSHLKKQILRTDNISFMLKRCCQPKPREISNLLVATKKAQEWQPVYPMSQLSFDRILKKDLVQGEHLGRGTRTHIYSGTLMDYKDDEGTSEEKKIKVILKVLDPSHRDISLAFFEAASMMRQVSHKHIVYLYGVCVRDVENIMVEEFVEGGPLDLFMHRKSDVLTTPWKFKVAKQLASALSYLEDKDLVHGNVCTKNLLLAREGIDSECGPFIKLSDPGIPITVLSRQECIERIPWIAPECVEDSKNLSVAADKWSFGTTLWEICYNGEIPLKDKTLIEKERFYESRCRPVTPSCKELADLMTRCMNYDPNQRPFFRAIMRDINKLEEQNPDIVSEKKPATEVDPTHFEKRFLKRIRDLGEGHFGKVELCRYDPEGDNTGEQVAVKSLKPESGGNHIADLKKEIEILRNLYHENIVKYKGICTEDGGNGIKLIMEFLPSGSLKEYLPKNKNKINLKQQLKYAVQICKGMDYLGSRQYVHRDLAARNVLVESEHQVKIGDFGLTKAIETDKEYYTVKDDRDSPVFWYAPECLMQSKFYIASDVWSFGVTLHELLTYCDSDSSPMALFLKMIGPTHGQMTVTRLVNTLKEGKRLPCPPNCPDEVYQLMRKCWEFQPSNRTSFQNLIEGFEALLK
T4 sequence (P29597 whole entry): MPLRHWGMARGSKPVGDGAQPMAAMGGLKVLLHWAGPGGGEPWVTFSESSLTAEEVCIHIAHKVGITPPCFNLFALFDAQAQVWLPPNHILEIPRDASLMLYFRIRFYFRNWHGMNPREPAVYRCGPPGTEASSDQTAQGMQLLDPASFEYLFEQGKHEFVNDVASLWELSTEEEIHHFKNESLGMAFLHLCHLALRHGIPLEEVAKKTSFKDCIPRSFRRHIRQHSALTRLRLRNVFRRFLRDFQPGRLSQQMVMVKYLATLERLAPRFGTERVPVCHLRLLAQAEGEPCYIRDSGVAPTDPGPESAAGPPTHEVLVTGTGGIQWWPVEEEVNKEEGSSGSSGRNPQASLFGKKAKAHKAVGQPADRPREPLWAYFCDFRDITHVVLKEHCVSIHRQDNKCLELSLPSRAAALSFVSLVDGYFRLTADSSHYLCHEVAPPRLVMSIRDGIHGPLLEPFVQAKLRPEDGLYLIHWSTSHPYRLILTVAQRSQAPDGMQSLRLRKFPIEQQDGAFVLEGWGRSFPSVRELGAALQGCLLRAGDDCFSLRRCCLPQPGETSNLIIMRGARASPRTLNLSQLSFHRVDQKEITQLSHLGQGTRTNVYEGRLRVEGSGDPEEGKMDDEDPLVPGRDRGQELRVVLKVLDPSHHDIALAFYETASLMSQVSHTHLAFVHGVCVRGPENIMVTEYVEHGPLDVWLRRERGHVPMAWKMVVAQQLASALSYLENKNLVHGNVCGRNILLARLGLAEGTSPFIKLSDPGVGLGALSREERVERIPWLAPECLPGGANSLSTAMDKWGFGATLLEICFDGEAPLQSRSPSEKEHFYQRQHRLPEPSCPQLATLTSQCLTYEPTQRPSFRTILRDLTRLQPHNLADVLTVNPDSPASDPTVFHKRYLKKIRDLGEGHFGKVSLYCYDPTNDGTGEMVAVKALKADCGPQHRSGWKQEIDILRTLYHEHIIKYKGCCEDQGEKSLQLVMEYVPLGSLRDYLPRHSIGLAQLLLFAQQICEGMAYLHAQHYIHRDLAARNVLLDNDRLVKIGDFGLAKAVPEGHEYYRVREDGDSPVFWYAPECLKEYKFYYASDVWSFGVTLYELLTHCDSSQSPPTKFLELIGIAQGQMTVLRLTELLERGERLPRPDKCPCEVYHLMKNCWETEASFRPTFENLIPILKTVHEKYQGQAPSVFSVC
T2 sequence (O60674 whole entry): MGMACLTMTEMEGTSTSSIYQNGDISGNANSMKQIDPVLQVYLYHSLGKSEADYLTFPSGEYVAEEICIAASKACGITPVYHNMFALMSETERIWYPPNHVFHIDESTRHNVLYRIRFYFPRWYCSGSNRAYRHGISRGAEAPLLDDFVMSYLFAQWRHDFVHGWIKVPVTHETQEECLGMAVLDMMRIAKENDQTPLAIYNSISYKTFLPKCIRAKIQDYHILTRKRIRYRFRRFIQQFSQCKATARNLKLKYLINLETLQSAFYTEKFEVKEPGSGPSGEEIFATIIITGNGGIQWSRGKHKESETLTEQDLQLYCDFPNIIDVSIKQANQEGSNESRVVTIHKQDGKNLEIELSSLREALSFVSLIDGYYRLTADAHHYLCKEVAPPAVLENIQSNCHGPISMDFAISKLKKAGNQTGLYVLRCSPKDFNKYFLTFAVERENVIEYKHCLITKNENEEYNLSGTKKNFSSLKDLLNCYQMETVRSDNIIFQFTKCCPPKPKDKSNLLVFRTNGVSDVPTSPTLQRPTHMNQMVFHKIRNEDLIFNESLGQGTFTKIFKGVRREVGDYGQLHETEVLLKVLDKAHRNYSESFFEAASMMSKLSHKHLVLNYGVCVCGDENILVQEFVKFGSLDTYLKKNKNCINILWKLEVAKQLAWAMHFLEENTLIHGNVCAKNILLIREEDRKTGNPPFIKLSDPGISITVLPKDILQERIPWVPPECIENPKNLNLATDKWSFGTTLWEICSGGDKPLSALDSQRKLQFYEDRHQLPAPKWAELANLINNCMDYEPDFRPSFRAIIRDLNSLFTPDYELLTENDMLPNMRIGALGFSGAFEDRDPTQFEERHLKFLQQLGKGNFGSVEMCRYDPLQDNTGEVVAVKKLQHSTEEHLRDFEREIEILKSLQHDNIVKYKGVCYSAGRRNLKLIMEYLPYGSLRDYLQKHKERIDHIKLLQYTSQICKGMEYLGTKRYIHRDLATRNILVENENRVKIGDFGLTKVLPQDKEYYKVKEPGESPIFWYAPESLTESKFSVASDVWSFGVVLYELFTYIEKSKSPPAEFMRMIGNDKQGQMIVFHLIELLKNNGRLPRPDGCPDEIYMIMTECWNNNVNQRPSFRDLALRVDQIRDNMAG

| Structure (SMILES) | inhibition at 1 µM (JAK1) [%] | inhibition at 1 µM (JAK2) [%] | inhibition at 1 µM (JAK3) [%] | inhibition at 1 µM (TYK2) [%] |
| --- | --- | --- | --- | --- |
| Cn1nc(-c2cn(C3CCCC3(C)C)c(=O)c3c(N)n[nH]c23)cc1CN1CCS(=O)(=O)CC1 (racemic) [Example 72, 3-amino-5-(2,2-dimethylcyclopentyl)-7-(5-((1,1-dioxidothiomorpholin-4-yl)methyl)-1-methyl-1H-pyrazol-3-yl)-1,5-dihydro-4H-pyrazolo[4,3-c]pyridin-4-one] | 99 | 100 | 100 | 100 |
| Cn1nc(-c2cn(C3CCCC3(C)C)c(=O)c3c(N)n[nH]c23)cc1N1CCOCC1 (racemic) [Example 73, 3-amino-5-(2,2-dimethylcyclopentyl)-7-(1-methyl-5-(morpholin-4-yl)-1H-pyrazol-3-yl)-1,5-dihydro-4H-pyrazolo[4,3-c]pyridin-4-one] | 99 | 99 | 100 | 100 |
| CC1CCCCC1n1cc(-c2cc(C(C)(C)O)n(C)n2)c2[nH]nc(N)c2c1=O (racemic) [Example 116, 3-amino-7-(5-(2-hydroxypropan-2-yl)-1-methyl-1H-pyrazol-3-yl)-5-(2-methylcyclohexyl)-1,5-dihydro-4H-pyrazolo[4,3-c]pyridin-4-one] | 101 | 100 | 101 | 102 |
| CC1CCCCC1n1cc(-c2cc(N3CCOCC3)n(C)n2)c2[nH]nc(N)c2c1=O (racemic) [Example 146, 3-amino-5-(2-methylcyclohexyl)-7-(1-methyl-5-(morpholin-4-yl)-1H-pyrazol-3-yl)-1,5-dihydro-4H-pyrazolo[4,3-c]pyridin-4-one] | 99 | 99 | 100 | 100 |
| CC(C)[C@H](C)n1cc(-c2cc(C(C)(C)O)n(C)n2)c2[nH]nc(N)c2c1=O [Example 1, 3-amino-7-(5-(2-hydroxypropan-2-yl)-1-methyl-1H-pyrazol-3-yl)-5-((2S)-3-methylbutan-2-yl)-1,5-dihydro-4H-pyrazolo[4,3-c]pyridin-4-one] | 97 | 98 | 100 | 99 |
| CC(C)C(C)n1cc(-c2cc(C(C)(C)O)n(C)n2)c2[nH]nc(N)c2c1=O (centres unmarked) [Example 2, 3-amino-7-(5-(2-hydroxypropan-2-yl)-1-methyl-1H-pyrazol-3-yl)-5-(3-methylbutan-2-yl)-1,5-dihydro-4H-pyrazolo[4,3-c]pyridin-4-one] | 97 | 98 | 99 | 99 |
| CC(C)[C@H](C)n1cc(-c2cc(C(C)(C)CO)n(C)n2)c2[nH]nc(N)c2c1=O [Example 3, 3-amino-7-(5-(1-hydroxy-2-methylpropan-2-yl)-1-methyl-1H-pyrazol-3-yl)-5-((2S)-3-methylbutan-2-yl)-1,5-dihydro-4H-pyrazolo[4,3-c]pyridin-4-one] | 98 | 99 | 100 | 100 |

Further lines, results first:

| inhibition at 1 µM (JAK1) [%] | inhibition at 1 µM (JAK2) [%] | inhibition at 1 µM (JAK3) [%] | inhibition at 1 µM (TYK2) [%] | Structure (SMILES) |
| --- | --- | --- | --- | --- |
| 99 | 99 | 100 | 99 | CC(C1CC1)n1cc(-c2cc(N3CCOCC3)n(C)n2)c2[nH]nc(N)c2c1=O (racemic) [Example 4, 3-amino-5-(1-cyclopropylethyl)-7-(1-methyl-5-(morpholin-4-yl)-1H-pyrazol-3-yl)-1,5-dihydro-4H-pyrazolo[4,3-c]pyridin-4-one] |
| 98 | 98 | 99 | 100 | CC(C)C(C#N)n1cc(-c2cc(N3CCOCC3)n(C)n2)c2[nH]nc(N)c2c1=O (racemic) [Example 112, 2-(3-amino-7-(1-methyl-5-(morpholin-4-yl)-1H-pyrazol-3-yl)-4-oxo-1,4-dihydro-5H-pyrazolo[4,3-c]pyridin-5-yl)-3-methylbutanenitrile] |
| 99 | 100 | 100 | 100 | C[C@@H](C1CC1)n1cc(-c2cc(N3CCOCC3)n(C)n2)c2[nH]nc(N)c2c1=O [Example 5, 3-amino-5-((1S)-1-cyclopropylethyl)-7-(1-methyl-5-(morpholin-4-yl)-1H-pyrazol-3-yl)-1,5-dihydro-4H-pyrazolo[4,3-c]pyridin-4-one] |
| 96 | 93 | 98 | 100 | C[C@H](C1CC1)n1cc(-c2cc(N3CCOCC3)n(C)n2)c2[nH]nc(N)c2c1=O [Example 6, 3-amino-5-((1R)-1-cyclopropylethyl)-7-(1-methyl-5-(morpholin-4-yl)-1H-pyrazol-3-yl)-1,5-dihydro-4H-pyrazolo[4,3-c]pyridin-4-one] |
